{"source": "patent US20130156845A1", "about": "“LIPID FORMULATED SINGLE STRANDED RNA” (ALNYLAM PHARMACEUTICALS, INC., priority 2010, published 2013)", "key": {"[1]": {"conditions": "mouse, serum", "procedure": "Single-stranded oligomeric compounds were tested for stability in mouse serum."}, "[2]": {"test_system": "PTEN", "experiment": "PTEN mRNA reduction in HeLa cells, dose response (Example 69)", "assay_type": "cell-based, human", "conditions": "percent inhibition of PTEN mRNA, 0.067-50 nM", "protocol": "In accordance with the present disclosure, oligomeric compounds were synthesized and tested for their ability to reduce PTEN expression over a range of doses. Human HeLa cells were treated with either ISIS 447581, 467074, 418046 or 467076. A dose comparison was evaluated with dose concentrations of 0.067, 0.2, 0.62, 1.9, 5.5, 16.7 and 50 nM using methods described herein. Expression levels of PTEN were determined using real-time PCR and normalized to RIBOGREEN™ using methods described herein. The percent inhibition of PTEN mRNA was determined and the resulting dose-response curves were used to determine the EC50. The EC50s are listed below."}, "[3]": {"test_system": "PTEN", "experiment": "PTEN mRNA reduction in HeLa cells, dose response (Example 59)", "assay_type": "cell-based, human", "conditions": "percent inhibition of PTEN mRNA, real-time PCR normalized to RIBOGREEN, 0.20-50 nM", "protocol": "When cells reached 65-75% confluency, they are treated with one or more oligomeric compounds. The oligomeric compound is mixed with LIPOFECTIN™ Invitrogen Life Technologies, Carlsbad, Calif.) in Opti-MEM™-1 reduced serum medium (Invitrogen Life Technologies, Carlsbad, Calif.) to achieve the desired concentration of the oligomeric compound(s) and a LIPOFECTIN™ concentration of 2.5 or 3 μg/mL per 100 nM oligomeric compound(s). This transfection mixture is incubated at room temperature for approximately 0.5 hours. For cells grown in 96-well plates, wells are washed once with 100 μL OPTI-MEM™-1 and then treated with 130 μL of the transfection mixture. Cells grown in 24-well plates or other standard tissue culture plates are treated similarly, using appropriate volumes of medium and oligomeric compound(s). […]\nQuantitation of target mRNA levels is accomplished by real-time quantitative PCR using the ABI PRISM™ 7600, 7700, or 7900 Sequence Detection System (PE-Applied Biosystems, Foster City, Calif.) according to manufacturer's instructions. This is a closed-tube, non-gel-based, fluorescence detection system which allows high-throughput quantitation of polymerase chain reaction (PCR) products in real-time. As opposed to standard PCR in which amplification products are quantitated after the PCR is completed, products in real-time quantitative PCR are quantitated as they accumulate. […]"}, "[4]": {"test_system": "human PTEN", "experiment": "PTEN expression in HeLa cells, ssRNAs vs siRNAs (Example 62)", "assay_type": "cell-based", "method_in_brief": "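HeLa cells treated with antisense strands either as single-stranded RNAs or duplexed with a common sense strand. PTEN mRNA levels normalized; IC50 from linear regression of normalized mRNA against log concentration.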"}, "[5]": {"test_system": "miR-34 seed-matched nucleic acids", "experiment": "Microarray analysis of gene expression changes after miR-34 mimics", "assay_type": "cell-based", "conditions": "microarray analysis of cells treated with miR-34 mimics", "from_the_text": "In addition to measuring cell cycle progression, cells treated with miR-34 mimics were subjected to microarray analysis to compare the profile of gene expression changes following treatment with microRNA mimics."}, "[6]": {"test_system": "A549 cells", "experiment": "MicroRNA mimics: cell cycle assay", "assay_type": "cell-based", "conditions": "RNAIMAX transfection, 0.1-100 nM, nocodazole, propidium iodide flow cytometry", "protocol": "A cell cycle assay was used to evaluate the activity of microRNA mimics. A549 cells were plated at a density of approximately 45,000 cells per well of a 24-well plate. The following day, cells were transfected with microRNA mimics and control oligomeric compounds, using RNAIMAX as the transfection reagent. Oligomeric compounds were tested at concentrations ranging from 0.1 nM to 100 nM. Control oligomeric compounds were also tested. Approximately 24 hours following transfection, nocodazole was added to the cells at a concentration ranging from 0.5 to 2.0 μg/ml. Approximately 16 hours later, the cells were harvested, washed, ethanol-fixed and stained with propidium iodide. Cells cycle profiles were generated by subjecting the stained cells to flow cytometry (FACSCAN)."}}, "note": "Read-outs that look alike come from different tables or passages of the source. Strand notation (5' to 3'): a small letter for the sugar, then the base; units joined by * are phosphorothioate-linked, units joined directly phosphodiester-linked; [ ] holds rarer units or linkages, { } end groups; capitals alone tell only the bases. [Rc] = thymidine, 2',5'-bis modified nucleoside Rc; e = 2'-O-(2-methoxyethyl) (MOE); m = 2'-O-methyl; {P} = phosphate; f = 2'-fluoro"}
{"substance": "5′-Ps-UdUfoGfoUfoCfoUfoCfoUfoGfoGfoUfoCfoCfoUfsUfsAfsCfsUfsUfsAesAe [ISIS 435395]", "values": [{"measurement": "T1/2 full length", "setting": "[1]", "result": 7.8, "unit": "h"}]}
{"substance": "P-TRcUfGmUfCmUfCmUfGmGfUmCfCmUfUmAfCmUfUmAeAe (antisense TUGUCUCUGGUCCUUACUUAA; sugars from the 5' end [Rc]fmfmfmfmfmfmfmfmfmee, 5' {P}, backbone not given here) [ISIS 447581, modified ssRNA targeting PTEN]", "values": [{"measurement": "EC50", "setting": "[2]", "result": 0.6, "unit": "nM"}, {"measurement": "EC50", "setting": "[3]", "result": 0.87, "unit": "nM"}, {"measurement": "EC50", "setting": "[4]; antisense strand duplexed with sense strand ISIS 341401, PTEN mRNA, read-out: EC50 (nM) siRNA", "result": 0.4, "unit": "nM"}, {"measurement": "EC50", "setting": "[4]; single stranded antisense compound, PTEN mRNA, read-out: EC50 (nM) ssRNA", "result": 1, "unit": "nM"}]}
{"substance": "P-UmGfGfCfAfGfUfGfUmCmUfUfAmGmCfUfGfGfUfUfGfUfAeAe ({P}-mUfGfGfCfAfGfUfGmUmCfUfUmAmGfCfUfG*fG*fU*fU*fG*fU*eA*eA) [ss miR-34]", "values": [{"measurement": "effect on miR-34 seed-matched nucleic acids", "setting": "[5]", "result": "down-regulated miR-34 seed-matched nucleic acids"}, {"measurement": "cell cycle phenotype", "setting": "[6]", "result": "blocking cells in the G1 phase of the cell cycle"}]}
